# Values quoted from earlier work, collected in US9844530B1, “Ophthalmic solutions for glaucoma and conjunctivitis treatment” (Axim Biotechnologies, Inc., priority 2014, dated 2017).
# System: various Staphylococcus aureus strains
# Settings: background statement
smiles,measurement,value
C=C(C)[C@@H]1CCC(C)=C[C@H]1c1c(O)cc(CCCCC)cc1O [Cannabidiol],minimum inhibitory concentration,0.5 to 1 µg/mL
